Laboratory results taken from US20160000796A1, “PHARMACEUTICAL COMPOSITION FOR USE IN PREVENTION OR TREATMENT OF CANCER” (priority 2013, published 2016).

Assays:
[1] = system: HTLV-1-infected cell line, MT2; assay: Combination of abacavir and topoisomerase inhibitor, cellular proliferation (MTS), MT2; format: cell-based; conditions: 48 hours, abacavir 10 or 25 μM plus CPT-11 200-400 pM, VP16 100-500 nM or ADR 10-50 nM
Experimental: An HTLV-1-infected cell line, MT2 cell, was used. Abacavir was added at a concentration of 0 μM (DMSO was added instead of abacavir), 10 μM, or 25 μM, and to each of the samples, CPT-11 (generic name: irinotecan) was further added at a concentration of 0 pM, 200 pM, 300 pM, or 400 pM. The cells were cultured for 48 hours. Separately, abacavir was added to MT2 cells at the concentrations as described above, and VP16 (generic name: etoposide) was further added to each of the samples at a concentration of 0 nM, 100 nM, 250 nM, or 500 nM, followed by 48 hours culture. Separately, abacavir was added to MT2 cells at the concentrations as described above, and ADR (generic name: doxorubicin) was further added at a concentration of 0 nM, 10 nM, 25 nM, or 50 nM, followed by 48 hours culture. MTS assay was performed using a reagent for cellular proliferation test, Aqueous One Solution Cell Proliferation (trade name, manufactured by Promega), in the same manner as in Example 1.
The graphs (A), (B), and (c) show the results of combinations of abacavir (ABC in the graph) and CPT-11, abacavir and VP16, and abacavir and ADR, respectively. In the graphs, the vertical axis indicates the proliferation rate calculated from the cell number when the cell number at the administration of the agents was regarded as 1.

[2] = system: ATL cell line, ED40515 (−); assay: PARP inhibitor combination, cellular proliferation (MTS), ED40515 (−); format: cell-based; conditions: olaparib 1-1000 μM with abacavir 10, 50 or 100 μM, 48 hours
Experimental: (§1) To an ATL cell line, ED40515 (−), or a non-ATL cell line, Jurkat, abacavir was added at a concentration of 0 μM (DMSO, was added instead of abacavir), 10 μM, 50 μM or 100 μM, and further a PARP inhibitor, olaparib, was added at a concentration of 0 μM (DMSO was added instead of olaparib), 1 μM, 10 μM, 100 μM or 1000 μM. The cells were cultured for 48 hours. MTS assay was performed using a reagent for cellular proliferation test, Aqueous One Solution Cell Proliferation (trade name, manufactured by Promega), in the same manner as in Example 1. The cellular proliferation was represented by a ratio relative to that of the control (solvent control) on Day 0 that was regarded as 1.

[3] = system: non-ATL cell line, Jurkat; assay: PARP inhibitor combination, cellular proliferation (MTS), Jurkat; format: cell-based, human; conditions: olaparib 1-1000 μM, 48 hours
Experimental: as §1

ATL cells = conditions: in vitro; Non Patent Literature 4; cited from earlier work
[4] = system: ATL cell line, ED40515 (−); assay: Chromosome double-strand break (Giemsa chromosome specimens), ED40515 (−); format: cell-based; conditions: 48 hours, abacavir 10-100 μM, zidovudine 10 or 100 μM
Experimental: Abacavir was added to an ATL cell line, ED40515 (−), at a concentration of 0 μM (DMSO was added instead of abacavir), 10 μM, 25 μM, 50 μM, 75 μM or 100 μM. After the 48 hours culture, the cells were fixed by Carnoy and stained with Giemsa to prepare chromosome specimens in accordance with conventional methods. Similarly, zidovudine was added to ED40515 (−) at a concentration of 10 μM or 100 μM, and abacavir was added to a non-ATL cell line, Jurkat, at a concentration of 100 μM, and chromosome specimens were prepared. Chromosome images (100 or more images per group) were observed by an optical microscope. The cells were determined as being positive for double-strand break (DSB) when at least one chromosome break was found.

## COc1cccc2c1C(=O)c1c(O)c3c(c(O)c1C2=O)C[C@@](O)(C(=O)CO)C[C@@H]3O[C@H]1C[C@H](N)[C@H](O)[C@H](C)O1 [ADR, doxorubicin]
[1]
  cellular proliferation (proliferation rate) in combination with abacavir: significantly suppressed cellular proliferation

## CCc1c2c(nc3ccc(OC(=O)N4CCC(N5CCCCC5)CC4)cc13)-c1cc3c(c(=O)n1C2)COC(=O)[C@]3(O)CC [CPT-11, irinotecan]
[1]
  cellular proliferation (proliferation rate) in combination with abacavir: significantly suppressed cellular proliferation

## COc1cc([C@@H]2c3cc4c(cc3[C@@H](O[C@@H]3O[C@@H]5CO[C@@H](C)O[C@H]5[C@H](O)[C@H]3O)[C@H]3COC(=O)[C@H]23)OCO4)cc(OC)c1O [VP16, etoposide]
[1]
  cellular proliferation (proliferation rate) in combination with abacavir: significantly suppressed cellular proliferation

## O=C(c1cc(Cc2n[nH]c(=O)c3ccccc23)ccc1F)N1CCN(C(=O)C2CC2)CC1 [olaparib]
[2]
  effect of PARP inhibitor on suppression of cellular proliferation by abacavir: enhanced the suppressive effect of abacavir
[3]
  cellular proliferation: did not affect cellular proliferation

## Cc1cn([C@H]2C[C@H](N=[N+]=[N-])[C@@H](CO)O2)c(=O)[nH]c1=O [zidovudine]
ATL cells
  anti-cancer effect against ATL cells: no anti-cancer effect
[4]
  ratio of double-strand break-positive cells: did not induce double-strand break
